Values of other authors in patent publication US20030056236A1, “Model” (priority 2001, published 2003).

Tested on: 5-HIAA levels
Details: after treatment; for elevate 5-HIAA levels: rat medial prefrontal cortex; for effect on 5-HIAA levels in the striatum: rat striatum

SMILES	elevate 5-HIAA levels	effect on 5-HIAA levels in the striatum
CCNC(=O)N1CCN(CCCC(c2ccc(F)cc2)c2ccc(F)cc2)CC1 [amperozide]	elevate	no effect
Cc1nc2sccn2c(=O)c1CCN1CCC(=C(c2ccc(F)cc2)c2ccc(F)cc2)CC1 [ritanserin]	to a lesser extent	no effect
Cc1nc2n(c(=O)c1CCN1CCC(c3noc4cc(F)ccc34)CC1)CCCC2 [Risperidone]	elevate	no effect
